Data: the supplement of paper PMC10307832

Legend:
Assay in all cases: relative viability (nuclei count vs DMSO), 5 days (fraction); higher = more cells survive
[1] = compound: Cn1cc(-c2cnc3ccc4ccc(CS(=O)(=O)NCc5ccccn5)cc4c(=O)c3c2)cn1 [MK-8033] + Cc1nc(NC(=O)N2CCC[C@H]2C(N)=O)sc1-c1ccnc(C(C)(C)C(F)(F)F)c1 [Alpelisib] (partner 2 µM)
How it was run: (§1)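 Relative viability was taken as the ratio of nuclei in treated wells to nuclei in vehicle wells. Lung cancer cell lines in 1536-well plates received compounds by pin tool one day after seeding, either one drug alone or a fixed anchor-drug dose plus five library-drug doses (not always all listed) in √10 steps. Nuclei were counted on 4× images after 5 days of treatment, and values are medians of duplicate plates.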

[2] = compound: Cn1cc(-c2cnc3ccc4ccc(CS(=O)(=O)NCc5ccccn5)cc4c(=O)c3c2)cn1 [MK-8033] + O=C(c1cc(Cc2n[nH]c(=O)c3ccccc23)ccc1F)N1CCN(C(=O)C2CC2)CC1 [Olaparib] (partner 8 µM)
How it was run: as §1

[3] = compound: CCc1c2c(nc3ccc(OC(=O)N4CCC(N5CCCCC5)CC4)cc13)-c1cc3c(c(=O)n1C2)COC(=O)[C@]3(O)CC [Irinotecan] + CS(=O)(=O)N1CCN(Cc2cc3nc(-c4cccc5[nH]ncc45)nc(N4CCOCC4)c3s2)CC1 [Pictilisib] (partner 1 µM)
How it was run: as §1

[4] = compound: CCc1c2c(nc3ccc(OC(=O)N4CCC(N5CCCCC5)CC4)cc13)-c1cc3c(c(=O)n1C2)COC(=O)[C@]3(O)CC [Irinotecan] + Cc1cc(Nc2cc(N3CCN(C)CC3)nc(Sc3ccc(NC(=O)C4CC4)cc3)n2)n[nH]1 [Tozasertib] (partner 0.1 µM)
How it was run: as §1

UMC-11
relative viability ([1]; first compound 0.02 µM): 0.988
relative viability ([1]; first compound 0.06325 µM): 0.979
relative viability ([1]; first compound 0.2 µM): 0.958
relative viability ([1]; first compound 0.6325 µM): 0.961
relative viability ([1]; first compound 2 µM): 0.986
relative viability ([2]; first compound 0.02 µM): 0.449
relative viability ([2]; first compound 0.06325 µM): 0.375
relative viability ([2]; first compound 0.2 µM): 0.353
relative viability ([2]; first compound 0.6325 µM): 0.405
relative viability ([2]; first compound 2 µM): 0.37
relative viability ([3]; first compound 0.6325 µM): 0.317
relative viability ([3]; first compound 2 µM): 0.532
relative viability ([3]; first compound 6.325 µM): 0.215
relative viability ([3]; first compound 20 µM): 0.158
relative viability ([4]; first compound 0.6325 µM): 0.194
relative viability ([4]; first compound 2 µM): 0.25
relative viability ([4]; first compound 6.325 µM): 0.268
relative viability ([4]; first compound 20 µM): 0.247
